Experimental data: patent US6329497A, “Sandramycin analogs” (The Scripps Research Institute, priority 1999, dated 2001)

Tests used:
[1] = target: HIV-1 reverse transcriptase (Human immunodeficiency virus type 1 group M subtype B, UniProt P04585); experiment: Inhibition of HIV-1 reverse transcriptase; type: biochemical
Description: The assay was performed according to an available procedure (Goldman, M. E.; Salituro, G. S.; Bowen, J. A.; Williamson, J. M.; Zink, D. L.; Schleif, W. A.; Emini, E. A. Mol. Pharmacol. 1990, 38, 20) with slight modification. A 45 L solution of reaction buffer containing 55 mM Tris·HCl, pH 8.2, 80 mM potassium chloride, 12 mM MgCl2, 1 mM DTT, 50 M EGTA, 2.5 g/mL rA·dT, 0.5 Ci of [^3 H]TTP, 10 M TTP, 1 mg/mL BSA, and 0.01% Triton X-100 was added to a well in a filter cluster plate (Millipore MAHV N45). The reverse transcription reaction was initiated upon addition of the reverse transcriptase (1 unit; 1 unit=10 pmol of [^3 H]TMP incorporated/60 min at 37° C.). The plate was incubated at 37° C. for 90 min. The plate was then placed on ice and 200 µL of 13% trichloroacetic acid and 10 mM sodium pyrophosphate was added to each well. The plate was chilled for 2 h and the liquid vacuumed out through the filter using a Millipore manifold (Millipore MAVM 09601). The precipitate was washed with 1 M and 10 mM sodium pyrophosphate twice. The filter was punched out and placed in a scintillation vial. 4 mL of cocktail was added. Radioactivity was determined by liquid scintillation counting.
The effects of sandramycin and its analogs on HIV-1 reverse transcriptase were determined by incubating the agents and the rA·dT containing buffer at 25° C. for 30 min prior to addition of the reverse transcriptase. Reactions containing no agents were used as controls, and those lacking the transcriptase were used as blanks.

[2] = system: L1210 cell line; experiment: In vitro cytotoxic activity, L1210; type: cell-based
[3] = system: calf thymus DNA and 5'-d(GCATGC)2; experiment: DNA binding affinity trends over calf thymus DNA and 5'-d(GCATGC)2 (fluorescence quenching)
Description: Apparent absolute DNA binding constants for 1-22 and related agents including luzopeptin A were obtained by measurement of the fluorescence quenching upon titration addition of calf thymus DNA or the deoxyoligonucleotides 5'-d(GCXXGC)2 where XX=AT, TA, GC, and CG. For each agent, the characteristic fluorescence excitation and emission spectra were recorded in 10 mM Tris-HCl, 75 mM NaCl (pH 7.4) buffer, FIG. 6. For the DNA binding assays which quantitate the fluorescence quenching, excitation outside the absorbance range of DNA was employed and the most intense fluorescence emission at a longer wavelength monitored. For assay of the DNA-induced fluorescence quenching of the agents, a 2 mL buffer solution of Tris-HCl (pH 7.4) and 75 mM NaCl was employed. For titration, small aliquots of DNA were added to solutions of the agents in Tris-HCl buffer (pH 7.4).
Despite these precautions, the fluorescence for a number of the analog solutions decreased for several of analogs (11, 14, 17, 21 and 22) and the quality of the binding constants for these should be viewed with caution. […] The titrations were carried out with 15 min time intervals between DNA additions to allow binding equilibration. […] The titration fluorescence quenching was analyzed by Scatchard analysis (Scatchard, G. Ann. N. Y. Acad. Sci. 1949, 51, 660) with the following equation: rb /c=Kb n-Kb rb where rb is the number of agent molecules bound per DNA base-pair, c is the free drug concentration, Kb is the apparent association constant, and n is the number of agent binding sites per base-pair.
A pronounced downward curvature in an infinite lattice such as calf thymus DNA is recognized to arise in part from neighbor exclusion where the binding of an agent excludes the subsequent binding at nearby sites. This exclusion manifests itself in the plot by a reduction in the apparent binding constant as the DNA lattice approaches saturation and the probability of finding a free site is diminished. In the calf thymus DNA studies, the binding also entails multiple classes of independent binding sites or modes. For simplicity, a linear fit of the high affinity binding sites was used to determine the binding constant attributable to bis-intercalation. For the deoxyoligonucleotides, the curvature can be more simply attributed to multiple classes of independent binding sites or binding modes. There are a number of mathematical methods to deconvolute the curved plot into such individual binding events. In the deoxyoligonucleotide studies, a non-linear fit described by Feldman was also used to deconvolute the curves. The model assumes one ligand with two binding types or sites. Since the number of binding sites is limited, we have interpreted this to indicate a high affinity bis-intercalation and a lower affinity binding potentially involving mono-intercalation. The formula was fit using the JMP^22 statistical fitting program using an initial approximation of the two n values and fitting for K1 and K2.
After 5 min of stirring, an initial fluorescence reading was taken with minimum exposure to the excitation beam. […] The excitation and emission wavelengths used for each analog varied and can be found in FIG. 6. The results of the titration were analyzed by Scatchard analysis. The linear portion of the Scatchard plot was used to determine the high affinity binding constants. In the case of the deoxyoligonucleotide study, a non-linear fit of the curve as described in the text was also used to determine the high affinity binding constant (Feldman, H. A. Anal. Biochem. 1972, 48, 317).

[4] = system: five cell lines; experiment: In vitro cytotoxic activity of key substructure analogs, five cell lines; type: cell-based; conditions: five cell lines

COc1cc2ccccc2nc1C(=O)N[C@@H]1COC(=O)[C@H](C(C)C)N(C)C(=O)CN(C)C(=O)CNC(=O)[C@@H]2CCCCN2C(=O)[C@H](NC(=O)c2nc3ccccc3cc2OC)COC(=O)[C@H](C(C)C)N(C)C(=O)CN(C)C(=O)CNC(=O)[C@@H]2CCCCN2C1=O [compound 3, (N-(3-Methoxy-quinolinyl-2-carbonyl)-D-ser-Pip-Gly-Sar-NMe-Val)2 (Serine Hydroxyl) Dilactone]
HIV-1 reverse transcriptase inhibition, in words [1]: roughly maintain the HIV-1 reverse transcriptase inhibitory potency of 1
reduction in inhibitory potency on O-alkylation of the C3 phenol [1]: approx. 10

CC(C)C1C(=O)OCC(NC(=O)c2cc3ccccc3cc2OCc2ccccc2)C(=O)N2CCCCC2C(=O)NCC(=O)N(C)CC(=O)N(C)C(C(C)C)C(=O)OCC(NC(=O)c2cc3ccccc3cc2OCc2ccccc2)C(=O)N2CCCCC2C(=O)NCC(=O)N(C)CC(=O)N1C [compound 6, (N-(3-Benzyl-oxynaphthyl-2-carbonyl)-D-Ser-Pip-Gly-Sar-NMe-Val)2 (Serine Hydroxyl) Dilactone]
cytotoxic potency, fold less potent than 2 [2]: > 5000
cytotoxic potency, fold less potent than 5 [2]: > 500

CC(C)[C@H]1C(=O)OC[C@@H](NC(=O)c2ccccn2)C(=O)N2CCCC[C@H]2C(=O)NCC(=O)N(C)CC(=O)N(C)[C@@H](C(C)C)C(=O)OC[C@@H](NC(=O)c2ccccn2)C(=O)N2CCCC[C@H]2C(=O)NCC(=O)N(C)CC(=O)N1C [compound 10, (N-(Pyridyl-2-carbonyl)-D-Ser-Pip-Gly-Sar-NMe-Val)2 (Serine Hydroxyl) Dilactone]
HIV-1 reverse transcriptase inhibition, in words [1]: much less effective
cytotoxic potency, fold less potent than 4 [2]: 4×10^5
cytotoxic potency, fold less potent than 8 [2]: 1000

COc1ccc2nc(C(=O)NC3COC(=O)C(C(C)C)N(C)C(=O)CN(C)C(=O)CNC(=O)C4CCCCN4C(=O)C(NC(=O)c4nc5ccc(OC)cc5cc4O)COC(=O)C(C(C)C)N(C)C(=O)CN(C)C(=O)CNC(=O)C4CCCCN4C3=O)c(O)cc2c1 [compound 11, (N-(3-Hydroxy-6-Methoxy-quinolinyl-3-carbonyl)-D-Ser-Pip-Gly-Sar-NMe-Val)2 (Serine Hydroxyl) Dilactone]
cytotoxic potency, fold less potent than 1 [2]: 2
DNA binding affinity, in words [3]: slightly less effective

COc1ccc2nc(C(=O)NC3COC(=O)C(C(C)C)N(C)C(=O)CN(C)C(=O)CNC(=O)C4CCCCN4C(=O)C(NC(=O)c4nc5ccc(OC)cc5cc4OCc4ccccc4)COC(=O)C(C(C)C)N(C)C(=O)CN(C)C(=O)CNC(=O)C4CCCCN4C3=O)c(OCc3ccccc3)cc2c1 [compound 12, (N-(3-Benzyloxy-6-methoxy-quinolinyl-2-carbonyl)-D-Ser-Pip-Gly-Sar-NMe-Val)2 (Serine Hydroxyl) Dilactone]
cytotoxic potency, fold less potent than 2 [2]: 0.8
cytotoxic potency, fold less potent than 11 [2]: 400

COc1ccc2nc(C(=O)N[C@@H]3COC(=O)[C@H](C(C)C)N(C)C(=O)CN(C)C(=O)CNC(=O)[C@@H]4CCCCN4C(=O)[C@H](NC(=O)c4ccc5cc(OC)ccc5n4)COC(=O)[C@H](C(C)C)N(C)C(=O)CN(C)C(=O)CNC(=O)[C@@H]4CCCCN4C3=O)ccc2c1 [compound 13, (N-(6-Methoxyquinolinyl-2-carbonyl)-D-Ser-Pip-Gly-Sar-NMe-Val)2 (Serine Hydroxyl) Dilactone]
HIV-1 reverse transcriptase inhibition, in words [1]: Comparable but slightly less potent inhibition
cytotoxic potency, fold less potent than 4 [2]: 2
cytotoxic potency, fold less potent than 11 [2]: 10

Cc1ccc2nc(C(=O)N[C@@H]3COC(=O)[C@H](C(C)C)N(C)C(=O)CN(C)C(=O)CNC(=O)[C@@H]4CCCCN4C(=O)[C@H](NC(=O)c4nc5ccc(C)cc5cc4O)COC(=O)[C@H](C(C)C)N(C)C(=O)CN(C)C(=O)CNC(=O)[C@@H]4CCCCN4C3=O)c(O)cc2c1 [compound 14, (N-(-3-Hydroxy-6-methylquinolinyl-2-carbonyl)-D-Ser-Pip-Gly-Sar-NMe-Val). sub.2 (Serine Hydroxyl) Dilactone]
HIV-1 reverse transcriptase inhibition, in words [1]: Comparable but slightly less potent inhibition
cytotoxic potency, fold less potent than 1 [2]: 1
DNA binding affinity, in words [3]: consistently slightly less effective

CC(C)[C@H]1C(=O)OC[C@@H](NC(=O)c2nc3cc(Cl)ccc3cc2O)C(=O)N2CCCC[C@H]2C(=O)NCC(=O)N(C)CC(=O)N(C)[C@@H](C(C)C)C(=O)OC[C@@H](NC(=O)c2nc3cc(Cl)ccc3cc2O)C(=O)N2CCCC[C@H]2C(=O)NCC(=O)N(C)CC(=O)N1C [compound 16, (N-(7-Chloro-3-hydroxyquinolinyl-2-carbonyl)-D-Ser-Pip-Gly-Sar-NMe-Val). sub.2 (Serine Hydroxyl) Dilactone]
HIV-1 reverse transcriptase inhibition, in words [1]: Comparable but slightly less potent inhibition
cytotoxic potency, fold less potent than 1 [2]: 0.5
DNA binding affinity, in words [3]: nearly indistinguishable from 1

CC(C)C1C(=O)OCC(NC(=O)c2nc3ccccc3nc2OCc2ccccc2)C(=O)N2CCCCC2C(=O)NCC(=O)N(C)CC(=O)N(C)C(C(C)C)C(=O)OCC(NC(=O)c2nc3ccccc3nc2OCc2ccccc2)C(=O)N2CCCCC2C(=O)NCC(=O)N(C)CC(=O)N1C [compound 20, (N-(3-Benzyl-oxyquinoxalyl-2-carbonyl)-D-Ser-Pip-Gly-Sar-NMe-Val)2 (Serine Hydroxyl) Dilactone]
cytotoxic potency, fold less potent than 19 [2]: 7

CC(C)[C@H]1C(=O)OC[C@@H](NS(=O)(=O)CC[Si](C)(C)C)C(=O)N2CCCC[C@H]2C(=O)NCC(=O)N(C)CC(=O)N(C)[C@@H](C(C)C)C(=O)OC[C@@H](NC(=O)c2nc3ccccc3cc2O)C(=O)N2CCCC[C@H]2C(=O)NCC(=O)N(C)CC(=O)N1C [compound 24, N^1 -SES,N^6 -(3-hydroxylquinoline-2-carbonyl) (D-Ser-Pip-Gly-Sar-NMe-Val)2 (Serine Hydroxyl) Dilactone]
fold less potent than 1 [4]: 5000-10000

(N-(3-Benzyl-oxypyridyl-2-carbonyl)-D-Ser-Pip-Gly-Sar-NMe-Val)2 (Serine Hydroxyl) Dilactons [compound 9]
cytotoxic potency, fold less potent than 2 [2]: 4000
cytotoxic potency, fold less potent than 8 [2]: 1000

(N-(3-Benzyloxy-7-chloroquinolinyl-2-carbonyl)-D-Ser-Pip-Gly-Sar-NMe-Val)2 (Serine Hydroxyl) Dilactone [compound 17]
reduction in inhibitory potency on O-alkylation of the C3 phenol [1]: > 500
reduction of the binding affinity versus 16 ([3]; O-benzylation of chromophore phenol): 2.4 to 2.7 kcal/mol

Sandramycin Bis-O-benzyl Ether [compound 2]
cytotoxic potency, fold less potent than 1 [2]: 1000
fold less potent than 1 [4]: 20-1000
